Reference: US8940705B2, “Method of treating disease and selectively modulating transcriptional regulation by a glucocorticoid receptor by administering aclacinomycin and dexamethasone” (The Regents of the University of California, priority 2009, dated 2015)

Tests used:
[1] = test system: genes that are regulated by glucocorticoids; experiment: In vivo screening: qPCR of glucocorticoid-regulated genes in mouse tissues; settings: mice, 7.5 mg/kg aclacinomycin, one hour later 2.5 mg/kg dexamethasone, tissues after 6 hours
Procedure: Mice were injected with 7.5 mg/kg aclacinomycin. One hour later, mice were injected with 2.5 mg/kg dexamethasone. After 6 hours, lungs, liver, heart and skeletal muscle were harvested for RNA preparation. qPCR was performed on isolated RNA from these tissues to analyze expression levels of various genes that are regulated by glucocorticoids.

GR [2] = biological target: T1, GR (Homo sapiens, UniProt P04150); experiment: Luciferase assays, GR-responsive reporters, A549 cells; type: cell-based; parameters: endogenous in cells; host or cells: A549; settings: for GR activity (GR-mediated induction of pENaC-luc reporter): pENaC-luc and pSV40-rl; for Dose dependent: whether the drug acted dose-dependently on GR-luciferase reporters
T1 sequence (P04150 1-777): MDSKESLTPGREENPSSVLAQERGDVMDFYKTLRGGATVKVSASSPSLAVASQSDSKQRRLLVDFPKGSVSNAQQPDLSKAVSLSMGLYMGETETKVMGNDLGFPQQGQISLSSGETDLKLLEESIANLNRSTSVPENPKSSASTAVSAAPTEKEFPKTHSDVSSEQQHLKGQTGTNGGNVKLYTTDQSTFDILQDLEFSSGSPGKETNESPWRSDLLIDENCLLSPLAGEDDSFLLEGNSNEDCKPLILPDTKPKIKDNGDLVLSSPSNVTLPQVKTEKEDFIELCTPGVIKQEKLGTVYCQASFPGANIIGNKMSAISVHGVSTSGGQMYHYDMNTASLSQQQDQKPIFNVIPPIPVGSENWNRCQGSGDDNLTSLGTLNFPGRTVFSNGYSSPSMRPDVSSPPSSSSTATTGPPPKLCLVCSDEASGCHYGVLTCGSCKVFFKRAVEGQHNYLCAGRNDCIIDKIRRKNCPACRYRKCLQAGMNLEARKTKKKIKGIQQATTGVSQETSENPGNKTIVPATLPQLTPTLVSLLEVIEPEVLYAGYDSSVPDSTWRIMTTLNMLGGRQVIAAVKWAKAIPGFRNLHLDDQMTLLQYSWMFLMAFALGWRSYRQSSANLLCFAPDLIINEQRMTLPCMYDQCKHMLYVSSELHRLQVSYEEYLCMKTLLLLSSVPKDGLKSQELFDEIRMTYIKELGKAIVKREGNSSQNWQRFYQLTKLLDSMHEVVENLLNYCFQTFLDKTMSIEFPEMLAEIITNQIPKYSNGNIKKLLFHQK
Procedure: (§1) Transfections. The day prior to transfection, ˜3×10^5 cells were plated in 6-well dishes. Transfections used Lipofectamine 2000 (Invitrogen). 4 μg of total plasmid DNA were used for each transfection. For A549 cells, 500 μL of DNA/lipofectamine complex was added to 1.5 ml of DMEM with pen/strep and 5% FBS. For U2OS cells, 500 μl of DNA/lipofectamine complex was added to 1.5 ml of Optimem. After 3-4 hours of incubation, media was replaced with standard growth media.
(§2) Luciferase assays. Luciferase assays used the Promega Dual-Luciferase Reporter system. Briefly, cells were transfected with various firefly luciferase plasmids and pSV40-RL at a ratio of 10:1. The day after transfection, cells were split into 96-well dishes and treated with dex and various drugs. Cells were harvested in 50 μl 1XPLB (Promega) 12-18 hr after drug treatment and luciferase assays were performed on 10 μl of lysate. Luminscence was detected using an Ultra Evolution plate reader (Tecan).

GR [3] = biological target: T1, GR; experiment: Multi-promoter fluorescent protein reporter compound screen for GR modulators; type: cell-based; parameters: endogenous in cells; host or cells: A549; settings: A549 cells, library compounds 2.5 μM with dex 100 nM; reporter fluorescence relative to plate mean
Procedure: Compound Screen. A549 cells were transfected with an equal mixture of pENaC-CFP, pGILZ-YFP, pFKBP5-OFP (1.3 μg each), or with pSV40-ChFP (4 μg). The next day, cells were mixed (˜1.8×10^4 of the cells triple-transfected with pENaC-CFP, pGILZ-YFP, pFKBP5-OFP; ˜2×10^3 cells transfected with pSV40-ChFP) and replated into 96 well plates (Costar 3603). 2 hours later, library compounds (2.5 μM) and dex (100 nM) were added using a Biomek robot. The following day, cells were fixed for 4 minutes in 4% paraformaldehyde and fluorescence was measured sequentially for each reporter using a Safire plate reader (Tecan). Hits were scored based on the mean and standard deviation (s.d.) of the experimental wells on each plate. Criteria for a hit were if one reporter was more than 1.5×s.d. from the mean in duplicate, or if two reporters were more than 0.8×s.d. from the mean in duplicate. If the control SV40-ChFP was more than 2×s.d. from the mean in a single plate, or 0.8×s.d. in duplicate plates (in the same direction as the GR reporters), the well was not scored as a hit.
We used the system of Example 1 to screen a library of 1040 natural products and FDA-approved drugs for modulators of GR signaling (Abbott, A. Nature 417:109). The screen design is outlined in FIG. 2. The pENaC-CFP, pGILZ-YFP, and pFKBP5-OFP reporters indicated GR signaling, while pSV40-mCh, an internal control, excluded non-specific transcription inhibitors and toxins. We screened the library in duplicate in the presence of saturating dex (100 nM). Z′, a function that reflects the ability to discriminate between control and experimental wells (Zhang, J. H. et al., J Biomol Screen 4:67-73 (1999)), was determined for dex treatment of each GR reporter. The Z′ values were: Z′(ENAC-CFP)=0.68; Z′(GILZ-YFP)=0.64; and Z′(FKBP5-OFP)=0.66. These indicate that the screen should efficiently identify compounds that increase or decrease fluorescence from any of the three experimental promoters (Zhang, J. H. et al., J Biomol Screen 4:67-73 (1999)).

GR [4] = biological target: T1, GR; experiment: qPCR of endogenous GR target genes, A549 cells; type: cell-based; parameters: endogenous in cells; host or cells: A549; settings: with dex, RPL19 reference
Excerpt: (§3) Quantitative PCR. Total RNA isolation used Trizol and Pure Link (Invitrogen). […] Rpl19 expression was used for data normalization.

GR [5] = biological target: T2, GR (Rattus norvegicus, UniProt P06536); experiment: Luciferase assays, GR-responsive reporters, U2OS-GR cells; type: cell-based; settings: pENaC-luc and pSV40-rl, with dex
T2 construct: expressed in transfected cells; host or cells: U2OS-GR
T2 sequence (P06536 1-795): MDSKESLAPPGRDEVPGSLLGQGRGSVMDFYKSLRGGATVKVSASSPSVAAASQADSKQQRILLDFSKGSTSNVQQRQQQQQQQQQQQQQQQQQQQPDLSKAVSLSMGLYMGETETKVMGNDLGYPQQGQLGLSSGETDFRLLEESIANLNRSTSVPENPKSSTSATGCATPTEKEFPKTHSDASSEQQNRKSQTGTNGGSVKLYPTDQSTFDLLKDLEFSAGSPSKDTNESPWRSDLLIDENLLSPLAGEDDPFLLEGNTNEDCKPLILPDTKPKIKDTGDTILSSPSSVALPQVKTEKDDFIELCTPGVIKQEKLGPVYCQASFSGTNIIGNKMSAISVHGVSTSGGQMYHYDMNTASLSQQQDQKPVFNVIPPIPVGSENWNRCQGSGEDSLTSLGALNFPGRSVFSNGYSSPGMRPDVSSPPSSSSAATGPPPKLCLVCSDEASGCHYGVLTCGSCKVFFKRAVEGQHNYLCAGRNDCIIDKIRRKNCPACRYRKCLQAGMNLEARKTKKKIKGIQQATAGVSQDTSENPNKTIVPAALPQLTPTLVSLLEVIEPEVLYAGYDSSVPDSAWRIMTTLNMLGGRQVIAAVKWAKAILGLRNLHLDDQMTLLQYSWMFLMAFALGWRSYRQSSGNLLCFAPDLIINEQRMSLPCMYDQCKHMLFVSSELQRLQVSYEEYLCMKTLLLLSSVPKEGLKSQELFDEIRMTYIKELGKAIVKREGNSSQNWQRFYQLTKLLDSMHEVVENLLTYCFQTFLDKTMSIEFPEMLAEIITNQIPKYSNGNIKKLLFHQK
Procedure: as §1, §2

androgen receptor (AR) = androgen receptor (AR) (Homo sapiens, UniProt P10275); settings: Hieronymus et al., Cancer Cell 10:321-330 (2006); cited from earlier work
GR [6] = experiment: qPCR of endogenous GR target genes, cell line not distinguished (FIG. 4B, 5D); type: cell-based; settings: with dex, 24 hr
Excerpt: as §3

RNA synthesis = settings: Long et al., Mol Pharmacol 22:152-7 (1982); cited from earlier work

Sequence of androgen receptor (AR) (P10275 whole entry, species assumed): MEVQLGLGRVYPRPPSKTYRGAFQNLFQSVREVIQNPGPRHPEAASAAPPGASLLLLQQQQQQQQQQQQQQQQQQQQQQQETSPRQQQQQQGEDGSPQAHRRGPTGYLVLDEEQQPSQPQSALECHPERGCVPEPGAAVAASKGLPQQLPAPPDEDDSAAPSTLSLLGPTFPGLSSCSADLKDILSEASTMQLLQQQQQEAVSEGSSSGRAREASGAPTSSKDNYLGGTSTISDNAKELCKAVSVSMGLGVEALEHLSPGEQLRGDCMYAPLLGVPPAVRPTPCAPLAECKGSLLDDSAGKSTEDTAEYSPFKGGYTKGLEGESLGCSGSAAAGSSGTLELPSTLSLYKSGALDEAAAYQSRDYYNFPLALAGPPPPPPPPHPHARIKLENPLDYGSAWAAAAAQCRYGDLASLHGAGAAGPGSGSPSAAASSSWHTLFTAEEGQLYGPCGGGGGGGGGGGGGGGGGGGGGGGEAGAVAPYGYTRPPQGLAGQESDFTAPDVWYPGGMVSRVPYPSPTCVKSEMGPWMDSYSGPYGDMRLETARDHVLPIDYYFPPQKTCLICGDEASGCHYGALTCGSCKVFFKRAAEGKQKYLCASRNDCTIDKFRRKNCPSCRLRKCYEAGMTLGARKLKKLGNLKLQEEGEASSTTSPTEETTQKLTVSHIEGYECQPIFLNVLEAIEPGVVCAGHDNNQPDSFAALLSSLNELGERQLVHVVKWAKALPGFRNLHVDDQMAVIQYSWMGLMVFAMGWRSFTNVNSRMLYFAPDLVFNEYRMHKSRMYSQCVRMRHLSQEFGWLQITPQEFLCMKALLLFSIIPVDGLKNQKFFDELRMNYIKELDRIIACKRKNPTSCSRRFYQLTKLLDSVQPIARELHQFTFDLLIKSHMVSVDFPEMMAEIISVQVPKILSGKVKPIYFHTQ

Row | Dose dependent (GR [2]; listed as pararosaniline) | Structure (SMILES) | activation of FKBP5 by dexamethasone ([1]; liver and lung (FIGS. 6-7)) | activation of KLF15 by dexamethasone ([1]; lung (FIG. 8)) | repression of the cytokine CCL2 by dexamethasone ([1]; lung (FIG. 9)) | pSV40-luc activity (GR [2]; A549 cells, low doses of Acl, dex-unresponsive reporter) | GR activity (GR-mediated induction of pENaC-luc reporter) (GR [2]; A549 cells, with dex) | effect on GR-dependent reporter pENaC-luc compared with GR-independent constitutive reporter pSV40-rl (GR [2]; A549 cells, with dex) | Dose dependent (GR [2]) | ENaC-CFP (GR [3]) | FKBP5-OFP (GR [3]) | GILZ-YFP (GR [3]) | expression of endogenous GR target genes (relative mRNA, qPCR) (GR [4]) | GR activity (luciferase reporter) (GR [5]) | androgen receptor (AR) signaling (androgen receptor (AR)) | expression of endogenous GR target genes (qPCR), overall (GR [6]) | induction of endogenous ENaC (qPCR) (GR [6]) | IC50 for inhibition of RNA synthesis, compared with aclacinomycin (RNA synthesis)
1 | – | CC[C@@]1(O)C[C@H](O[C@H]2C[C@H](N(C)C)[C@H](O[C@H]3C[C@H](O)[C@H](O[C@H]4CCC(=O)[C@H](C)O4)[C@H](C)O3)[C@H](C)O2)c2c(cc3c(c2O)C(=O)c2c(O)cccc2C3=O)[C@H]1C(=O)OC [Aclacinomycin] | blocked the activation | blocked the activation | did not inhibit repression | Increases | antagonists of GR | reduced GR activation of pENaC-luc much more than the constitutive reporter | yes | ↓↓↓^b (more than 2 standard deviations (s.d.) less than the mean (↓↓↓)) | ↓↓↓ (more than 2 standard deviations (s.d.) less than the mean (↓↓↓)) | ↓↓↓ (more than 2 standard deviations (s.d.) less than the mean (↓↓↓)) | inhibited GR at the tested promoters | inhibited GR | – | – | – | –
2 | – | CC[C@@]1(O)C[C@H](O[C@H]2C[C@H](N(C)C)[C@H](O[C@H]3C[C@@H]4O[C@H]5CC(=O)[C@H](C)O[C@H]5O[C@@H]4[C@H](C)O3)[C@H](C)O2)c2c(cc3c(c2O)C(=O)c2c(O)ccc(O)c2C3=O)[C@H]1C(=O)OC [Cin B, Cinerubin (Cin) B] | – | – | – | – | potently inhibited GR activity | – | – | – | – | – | inhibited GR at the tested promoters | – | – | – | – | –
3 | – | O=C1c2c(O)ccc(O)c2C(=O)c2c(NCCNCCO)ccc(NCCNCCO)c21 [Mitoxantrone] | – | – | – | – | antagonists of GR | – | yes | ↓↓↓ (more than 2 standard deviations (s.d.) less than the mean (↓↓↓)) | ↓↓↓ (more than 2 standard deviations (s.d.) less than the mean (↓↓↓)) | ↓↓↓ (more than 2 standard deviations (s.d.) less than the mean (↓↓↓)) | – | inhibited GR | – | – | – | –
4 | dose dependent effects | N=C1C=CC(=C(c2ccc(N)cc2)c2ccc(N)cc2)C=C1 [Pararosaniline] | – | – | – | – | – | – | yes | ↓ (0.8 to 2 s.d. less than the mean (↓)) | No effect | ↓ (0.8 to 2 s.d. less than the mean (↓)) | – | – | inhibit | selectively modulated endogenous GR target genes | selectively inhibited the induction of endogenous ENaC transcription in comparison to FKBP5 | –
5 | – | CC[C@@]1(O)C[C@H](O[C@H]2C[C@H](N(C)C)[C@H](O[C@H]3C[C@H](O)[C@H](O[C@H]4C[C@H](O)[C@H](O)[C@H](C)O4)[C@H](C)O3)[C@H](C)O2)c2c(cc3c(c2O)C(=O)c2c(O)ccc(O)c2C3=O)[C@H]1C(=O)OC [marcellomycin] | – | – | – | – | no impact on GR-mediated induction of the reporter | – | – | – | – | – | – | – | – | – | – | similar
